The results in this text go back to patent US20080287445A1, “Prokineticin 2 receptor antagonists” (priority 2005, published 2008).

The test system of experiment [1] is Cholera toxin evoked increase in baseline Isc. Further details: species or system rat.
Experiment [2] deals with T1, GPR73 (prokineticin 1 receptor) (Homo sapiens, UniProt Q8TCW9).
T1 construct: expressed in transfected cells; host or cells: HEK 293
Briefly: PK1 functional assay: Ca2+ mobilization screening for PK1 antagonists on the FLIPR. The format is cell-based. Particulars: HEK 293 GPR73 cells, multiple values = multiple testing; for Ca^2+ Mobilization % Inh @ 10 μM: 10 μM compound; for inhibition at 10 µM: HEK293, 10 μM compound, read-out: Ca^2+ Mobilization % Inh @ 10 μM; for IC50: PK1 ligand preparation at its EC50, read-out: Ca^2+ Mobilization IC50. In short, it runs like this:
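HEK293 cells expressing human GPR73 were loaded with Calcium Plus dye, then on FLIPR given compound for 4 min 15 s before PK1 ligand at its predetermined EC50. Baseline-subtracted fluorescence over 1 min 45 s gave percent inhibition versus maximal signal; IC50 fitted.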

For experiment [3], the system named is ileum mucosal tissues from PK1 receptor knock-out mice. Briefly: PK1-evoked Isc in ileum mucosal tissues from PK1 receptor knock-out mice. Particulars: exogenous PK1 peptide.

Where “and” joins values, the source holds several entries; their conditions need not be identical. Equal values may be shown once. Some results are limits rather than exact numbers.

T1 sequence (Q8TCW9 whole entry, species assumed): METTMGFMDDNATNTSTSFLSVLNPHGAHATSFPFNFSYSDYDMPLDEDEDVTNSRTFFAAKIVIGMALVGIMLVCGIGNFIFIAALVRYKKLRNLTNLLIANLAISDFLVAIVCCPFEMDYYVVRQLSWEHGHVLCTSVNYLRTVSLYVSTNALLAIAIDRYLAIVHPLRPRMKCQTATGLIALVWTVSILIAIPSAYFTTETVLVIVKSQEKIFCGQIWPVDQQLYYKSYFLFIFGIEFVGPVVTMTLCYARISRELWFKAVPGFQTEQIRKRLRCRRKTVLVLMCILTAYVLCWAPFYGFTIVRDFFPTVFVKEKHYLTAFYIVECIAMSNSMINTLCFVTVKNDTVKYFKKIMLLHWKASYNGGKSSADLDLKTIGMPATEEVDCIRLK

As to `COc1ccc(Cn2c(NCc3cccnc3N)nc(=O)n(Cc3ccc(OC)cc3)c2=O)cc1` [Cpd 3, 6-[(2-Amino-pyridin-3-ylmethyl)-amino]-1,3-bis-(4-methoxy-benzyl)-1H-[1,3,5]triazine-2,4-dione], in experiment [1], the “suppression of Cholera toxin-evoked increase in Isc (in words)” value was “suppresses” and the “suppression of sustained increase in baseline Isc evoked by Cholera toxin” value is on record as 50-60%. In addition, in experiment [2], the “Ca^2+ Mobilization % Inh @ 10 μM” value was 94% and 100%; the inhibition at 10 µM came to 83%; the IC50 is 34 nM and 61 nM and 82 nM.
On to `COc1ccc(Cn2c(NCc3c(N)nc4c(c3-c3ccccc3)CCC4)nc(=O)n(Cc3ccc(OC)cc3)c2=O)cc1` [Cpd 246], for which, in experiment [2], the inhibition at 10 µM was found to be 48% and the half-inhibitory concentration (IC50) turned out to be 8320 nM.
Take `COc1ccc(Cn2c(NCc3cnc(C)cn3)nc(=O)n(Cc3ccc(OC)cc3)c2=O)cc1` [Cpd 247]: in experiment [2], the “Ca^2+ Mobilization % Inh @ 10 μM” value is 97%; the inhibition at 10 µM came to 100%; the IC50 was 27 nM and 30 nM.
Turning to `COc1ccc(Cn2c(NCc3cnc(C)nc3N)nc(=O)n(Cc3ccc(OC)cc3)c2=O)cc1` [Cpd 248], in experiment [2], the inhibition at 10 µM amounted to 103% and the IC50 amounted to 34 nM.
For the molecule `COc1ccc(Cn2c(SCc3cccnc3N)cc(=O)n(Cc3ccc(OC)cc3)c2=O)cc1` [Cpd 249], in experiment [2], the inhibition at 10 µM is 90% and the IC50 amounted to 194 nM.
For `COc1ccc(Cn2c(NCc3c(COCc4ccccc4)cc(C)nc3N)nc(=O)n(Cc3ccc(OC)cc3)c2=O)cc1` [Cpd 250], in experiment [2], the inhibition at 10 µM amounted to 48% and the IC50 was 8630 nM.
Regarding `Cc1cc(CO)c(CNc2nc(=O)n(Cc3ccc4c(c3)CCO4)c(=O)n2Cc2ccc(OC(F)F)cc2)c(N)n1` [Cpd 251], in experiment [2], the inhibition at 10 µM worked out at 93% and the IC50 stood at 225 nM.
Regarding `COCCCCCn1c(=O)nc(NCc2c(C)cc(C)nc2N)n(Cc2ccc(OC)cc2)c1=O` [Cpd 252, 6-[(2-Amino-4,6-dimethyl-pyridin-3-ylmethyl)-amino]-1-(4-methoxy-benzyl)-3-(5-methoxy-pentyl)-1H-[1,3,5]triazine-2,4-dione], in experiment [2], the inhibition at 10 µM came out at 71% and the IC50 is 1350 nM.
As for `COCCCCCn1c(NCc2c(C)cc(C)nc2N)nc(=O)n(Cc2ccc(Cl)cc2)c1=O` [Cpd 253], in experiment [2], the inhibition at 10 µM is 97% and the 50% inhibitory concentration (IC50) amounted to 9 nM.
In the case of `COCCCCCn1c(NCc2c(C)cc(C)nc2N)nc(=O)n(Cc2ccccc2)c1=O` [Cpd 254], in experiment [2], the inhibition at 10 µM was determined as 96% and the IC50 amounted to 98 nM.
Take `COCCCCCn1c(NCc2c(C)cc(C)nc2N)nc(=O)n(Cc2ccc(Cl)c(Cl)c2)c1=O` [Cpd 255]: in experiment [2], the inhibition at 10 µM was found to be 99% and the IC50 stood at 78 nM.
On to `COCCCCCn1c(NCc2cccnc2N)nc(=O)n(Cc2ccc(Cl)cc2)c1=O` [Cpd 256], for which, in experiment [2], the inhibition at 10 µM is 99% and the IC50 was determined as 118 nM.
For `COCCCCCn1c(NCc2cccnc2N)nc(=O)n(Cc2ccc(OC(F)F)cc2)c1=O` [Cpd 257], in that order: 76% and 1520 nM.
Consider `Cc1cnc(CNc2nc(=O)n(Cc3ccc4c(c3)CCO4)c(=O)n2Cc2ccc(OC(F)F)cc2)cn1` [Cpd 261], for which, in experiment [2], the inhibition at 10 µM worked out at 87% and the half-maximal inhibitory concentration (IC50) is 772 nM.
For `Cc1cc(-c2ccc(F)cc2)nc(N)c1CNc1nc(=O)n(Cc2ccc3c(c2)CCO3)c(=O)n1Cc1ccc(OC(F)F)cc1` [Cpd 262], in experiment [2], the inhibition at 10 µM worked out at 0.89% and the IC50 was over 10000 nM.
On to `COc1ccc(Cn2c(NCc3c(N)nc(C)c(C)c3C)nc(=O)n(Cc3ccc(OC)cc3)c2=O)cc1` [Cpd 263], for which, in experiment [2], the inhibition at 10 µM is 99% and the IC50 was determined as 94 nM.
The like results for `COc1ccc(Cn2c(NCc3c(N)nc4c(c3C)CCC4)nc(=O)n(Cc3ccc(OC)cc3)c2=O)cc1` [Cpd 264] were, in that order, 95% and 74 nM.
With `CCCc1cc(CCC)c(CNc2nc(=O)n(Cc3ccc(OC)cc3)c(=O)n2Cc2ccc(OC)cc2)c(N)n1` [Cpd 265], in experiment [2], the inhibition at 10 µM was 95% and the IC50 was 441 nM.
With `COc1ccc(Cn2c(NCc3cccc(C)n3)nc(=O)n(Cc3ccc(OC)cc3)c2=O)cc1` [Cpd 267], in experiment [2], the inhibition at 10 µM came out at 10% and the IC50 is over 10000 nM.
Consider `Nc1cc(Cn2c(=O)nc(NCc3cccnc3N)n(Cc3ccc(OC(F)F)cc3)c2=O)ccc1O` [Cpd 268], for which, in experiment [2], the inhibition at 10 µM came out at 24% and the IC50 is over 10000 nM.
Consider `Nc1cc(Cn2c(=O)nc(NCc3cccnc3N)n(Cc3ccc4c(c3)CCO4)c2=O)ccc1O` [Cpd 269], for which, in experiment [2], the inhibition at 10 µM was found to be 22% and the IC50 is over 10000 nM.
Turning to `Cc1cc(COCc2ccccc2)c(CNc2nc(=O)n(Cc3ccc4c(c3)CCO4)c(=O)n2Cc2ccc(OC(F)F)cc2)c(N)n1` [Cpd 270, 6-[(2-Amino-4-benzyloxymethyl-6-methyl-pyridin-3-ylmethyl)-amino]-1-(4-difluoromethoxy-benzyl)-3-(2,3-dihydro-benzofuran-5-ylmethyl)-1H-[1,3,5]triazine-2,4-dione], in experiment [2], the inhibition at 10 µM came to 12% and the IC50 is over 10000 nM.

B1: PK1: Recombinant human prokineticin-1 expressed in HEK 293 cells, FLAG epitope cleaved; preparation holds full-length and a four C-terminal residue truncated product (protein, UniProt P58294 20-105, looked up)
Prokineticin-1: AVITGACERDVQCGAGTCCAISLWLRGLRMCTPLGREGEECHPGSHKVPFFRKRKHHTCPCLPNLLCSRFPDGRYRCSMDLKNINF
modifications: mixture with C-terminally truncated product
Take B1: the “change in Isc compared to wild-type littermates” value in experiment [3] is “failed to elicit a significant change in Isc”.
